Test results published in patent US20220273809A1, “AXL ANTIBODY-DRUG CONJUGATES FOR USE IN TREATING CANCER” (GENMAB A/S, priority 2019, published 2022).
Non-standard residues stand in square brackets, D forms with d. Residues, ends and D or L forms follow the SMILES beside them. *: point of attachment. Dolaproine = CO[C@@H]([C@@H]1CCCN1)[C@@H](C)C(=O)O; Dil = CC[C@H](C)[C@H](NC)[C@@H](CC(=O)O)OC; X1 = C[C@@H](N*)[C@@H](O)c1ccccc1; NMeV = CN[C@H](C(=O)O)C(C)C

Key:
[1] = system: LCLC-103H cells; experiment: Calreticulin surface expression in vitro (flow cytometry); assay type: cell-based, human; settings: 48 h; for cell surface expression of calreticulin (MFI) compared to untreated cells: ADCs 2 μg/mL, MMAE 10 or 50 nM, paclitaxel 1 μM; for percentage of calreticulin positive cells: compared to untreated or isotype control ADC
Experimental: (§1) LCLC-103H or MDA-MB-231 cells were grown to 70% to 80% confluence in 6-well plates, washed with serum-free medium and incubated with IgG1-AXL-107-vcMMAE (2 μg/mL), free monomethyl auristatin E (MMAE, SAFC, cat.no SG10; 10 or 50 nM), paclitaxel (1 μM), or isotype control ADC (IgG1-b12-vcMMAE; 2 μg/mL) in serum-free medium (RPMI1640, Lonza BE17-603E) for 48 hours (LCLC-103H) or 72 hours (MDA-MB-231). After incubation, supernatant and cells were collected and washed in PBS/0.1% BSA/0.02% azide (FACS buffer). Cells were then incubated with a phycoerythrin (PE)-conjugated mouse anti-human calreticulin antibody (Enzo, Cat no. ADI-SPA-601PE-D, lot. 10021835) for 30 min at 4° C. in the dark. A PE-conjugated mouse isotype control antibody (Enzo, cat no. ADI-SAB-600PE-D, lot. 08071817) was included as a control. After washing with FACS buffer, cells were analyzed with flow cytometry in the presence of DAPI (BD; cat no. 564907, lot. 8012653) or TO-PRO-3 (Thermo Fisher, cat no. T3605, lot. 1976612). Calreticulin expression was determined as PE positive cells and the percentage of calreticulin positive cells over isotype control was obtained on DAPI or TO-PRO-3 negative cells.

[2] = system: MDA-MB-231 cells; experiment: as above; assay type: cell-based, human; settings: 72 h; for cell surface expression of calreticulin (MFI) compared to untreated cells: ADCs 2 μg/mL, MMAE 10 or 50 nM, paclitaxel 1 μM; for percentage of calreticulin positive cells: compared to untreated or isotype control ADC
Experimental: as §1

[3] = system: LCLC-103H cells; experiment: Extracellular ATP release in vitro (CellTiterGlo); assay type: cell-based, human; settings: 48 hr, 100% PBS; ADC 2 μg/mL, paclitaxel 1 μM, MMAE 10 or 50 nM
Experimental: (§2) LCLC-103H or MDA-MB-231 cells were seeded in quadruplicate at 25,000 cells per well for LCLC-103H cells or 125,000 cells per well for MDA-MB-231 cells in 24-well plates and grown 3 hours at 37° C. Subsequently, IgG1-AXL-107-vcMMAE (2 μg/mL), free monomethyl auristatin E (MMAE; 10 or 50 nM), paclitaxel (1 μM), or isotype control ADC (IgG1-b12-vcMMAE; 2 μg/mL) were added per well.
(§3) Plates were incubated for 48 hr at 37° C. and after incubation each well was washed with 200 μL PBS. After the final wash, PBS was replaced with 200 μL fresh 100% PBS or 70% PBS (hypotonic) for the indicated times, harvested and transferred to a 96-well plate, and then spun at 1000 rpm for 2 min at RT. Supernatants were transferred to a new 96-well (optiwhite) plate and ATP was measured using CellTiterGlo Luminescent Cell Viability Assay (Promega, Cat.no G7570) according to manufacturer's instructions. All steps were performed with ice-cold PBS and in the dark.

[4] = system: MDA-MB-231 cells; experiment: Extracellular ATP release in vitro (CellTiterGlo); assay type: cell-based, human; settings: 48 hr
Experimental: as §2, §3

[5] = system: LCLC-103H cells; experiment: HMGB1 secretion in vitro (ELISA); assay type: cell-based, human; settings: 48 hrs; ADC 2 μg/mL, MMAE 10 or 50 nM, paclitaxel 1 μM
Experimental: (§4) MDA-MB-231 or LCLC-103H cells were seeded in quadruplicate at 125,000 cells per well (MDA-MB-231) or 25,000 cells/well (LCLC-103H) in 24-well plates and grown 3-4 hrs at 37° C. Subsequently, IgG1-AXL-107-vcMMAE (2 μg/mL), free monomethyl auristatin E (MMAE; 10 or 50 nM), paclitaxel (1 μM), or isotype control ADC (IgG1-b12-vcMMAE; 2 μg/mL) were added to the wells and plates were incubated for 48 hrs at 37° C. After incubation cells were pelleted at 1000 rpm for 3 min at RT and supernatants were transferred to a new 96-wells plate. HMGB1 was measured in the supernatant using a HMGB1-specific ELISA kit (IBL, Cat.no ST51011) according to manufacturer's instructions.

[6] = system: MDA-MB-231 cells; experiment: HMGB1 secretion in vitro (ELISA); assay type: cell-based, human; settings: 48 hrs; ADC 2 μg/mL, MMAE 10 or 50 nM, paclitaxel 1 μM
Experimental: as §4

[7] = system: BLM human melanoma cell line-derived xenograft; experiment: BLM melanoma xenograft model with MART-1-specific human T cells; assay type: in vivo, mice; settings: ADC single dose 4 mg/kg i.v. with control or MART-1 T cells; anti-PD1 5 mg/kg weekly i.p. with MART-1 T cells and control ADC
Experimental: (§5) The anti-tumor activity of IgG1-AXL-107-vcMMAE in combination with anti-PD1 (pembrolizumab) was evaluated in the BLM human melanoma cell line-derived xenograft model in mice, which systemically received human T-cells that were engineered to express a melanoma-specific T-cell receptor (TCR) against MART-1. Before inoculation of mice with BLM cells, the BLM cells were transduced with the antigen (MART-1) as well as the correct HLA haplotype (HLA-A2) in order for the MART-1-specific T cells to recognize the tumor cells.
Melanoma cell line BLM was cultured in DMEM (Gibco), with fetal bovine serum (Sigma), 100 U/mL penicillin (Gibco) and 0.1 mg/mL streptomycin (Gibco) under standard conditions, and was regularly confirmed to be mycoplasma-free by PCR. […]
(§6) 8-14 week old male and female NOD-SCID Gamma (NSGTM) mice (bred in-house at the Netherlands Cancer Institute (NKI), Amsterdam, The Netherlands) were subcutaneously injected in the right flank with 1×10^6 BLM tumor cells. Tumors were measured three times per week with a caliper, and when tumors were 100 mm3 (after 7 days) the animals were randomized over the following treatment groups: • 1. […]
(§7) Tumor volumes were measured 3 times per week by an independent animal technician in a blinded fashion. Tumor volume was calculated as follows: […]. […]

[8] = system: LCLC-103H NSCLC cell line-derived xenograft; experiment: LCLC-103H NSCLC xenograft model with MART-1-specific human T cells; assay type: in vivo, mice; settings: ADC 1 mg/kg weekly i.v. with control T cells; anti-PD1 5 mg/kg weekly i.p. with MART-1 T cells and control ADC
Experimental: as §5, with “LCLC-103H NSCLC” for “BLM human melanoma”, “specific” for “melanoma-specific”, “LCLC-103H” for “BLM”
as §6, with “50” for “100”, “16 days), mice” for “7 days) the animals”, “1. Control T cells+Control ADC (n=7) • 2. MART-1 T cells+Control ADC (n=7) • 3. MART-1 T cells+Control ADC+anti-PD1 (n=7) • 4. Control T cells+IgG1-AXL-107-vcMMAE (n=11) • 5. MART-1 T cells+IgG1-AXL-107-vcMMAE (n=11) • 6. MART-1 T cells+IgG1-AXL-107-vcMMAE+anti-PD1 (n=11)” for “1.”
as §7

[9] = target: mouse Axl (Mus musculus, UniProt Q00993); experiment: Binding to mouse Axl
[10] = system: LXFA 526; settings: 4 mg/kg i.v.; Boshuizen et al, Nature Med 2018; cited from earlier work
[11] = system: LXFA 677; settings: 4 mg/kg i.v.; Boshuizen et al, Nature Med 2018; cited from earlier work
[12] = hypotonic conditions (70% PBS), ADCs 2 μg/mL, MMAE 50 nM, paclitaxel 1 μM

Sequence of mouse Axl (Q00993 19-888): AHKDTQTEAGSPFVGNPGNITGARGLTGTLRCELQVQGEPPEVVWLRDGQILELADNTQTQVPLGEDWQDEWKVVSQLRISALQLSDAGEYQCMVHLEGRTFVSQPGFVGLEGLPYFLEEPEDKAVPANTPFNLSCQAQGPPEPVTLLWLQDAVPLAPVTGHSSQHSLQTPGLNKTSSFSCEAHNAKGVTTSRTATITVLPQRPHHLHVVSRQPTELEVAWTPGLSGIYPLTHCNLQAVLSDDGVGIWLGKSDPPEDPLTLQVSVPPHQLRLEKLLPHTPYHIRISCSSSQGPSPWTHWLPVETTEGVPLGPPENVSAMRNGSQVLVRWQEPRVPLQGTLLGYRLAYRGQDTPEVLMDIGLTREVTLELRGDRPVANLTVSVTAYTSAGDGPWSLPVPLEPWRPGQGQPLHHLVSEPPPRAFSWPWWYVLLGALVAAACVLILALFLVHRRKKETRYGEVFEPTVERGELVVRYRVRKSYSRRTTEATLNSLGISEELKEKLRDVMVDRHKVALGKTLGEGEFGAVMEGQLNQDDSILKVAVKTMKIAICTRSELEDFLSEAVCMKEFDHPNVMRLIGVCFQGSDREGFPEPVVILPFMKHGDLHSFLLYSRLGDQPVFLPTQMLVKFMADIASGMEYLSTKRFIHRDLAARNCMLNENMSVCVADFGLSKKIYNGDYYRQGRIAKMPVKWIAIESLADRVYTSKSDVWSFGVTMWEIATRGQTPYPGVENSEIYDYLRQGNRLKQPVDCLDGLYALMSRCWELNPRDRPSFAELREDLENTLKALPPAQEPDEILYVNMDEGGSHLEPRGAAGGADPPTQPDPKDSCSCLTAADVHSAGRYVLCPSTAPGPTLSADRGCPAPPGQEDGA

Compound | cell surface expression of calreticulin (MFI) compared to untreated cells [1] | percentage of calreticulin positive cells [1] | cell surface expression of calreticulin (MFI) compared to untreated cells [2] | percentage of calreticulin positive cells [2] | ATP release compared to untreated cells [3] | ATP release compared to untreated cells [4, 12] | HMGB1 secretion compared to untreated cells [5] | HMGB1 secretion compared to untreated cells [6] | anti-tumor effect (tumor size) [7] | anti-tumor effect (tumor size) [8] | binding to mouse Axl [9] | anti-tumor activity / tumor growth [10] | anti-tumor activity / tumor growth [11] | ATP release compared to untreated cells ([4]; 100% PBS, 10 nM MMAE) | ATP release compared to untreated cells ([4]; hypotonic conditions (70% PBS), 10 nM MMAE)
CC(=O)O[C@H]1C(=O)[C@@]2(C)[C@H]([C@H](OC(=O)c3ccccc3)[C@]3(O)C[C@H](OC(=O)[C@H](O)[C@@H](NC(=O)c4ccccc4)c4ccccc4)C(C)=C1C3(C)C)[C@]1(OC(C)=O)CO[C@@H]1C[C@@H]2O [paclitaxel] | comparable | increased | comparable | increased | comparable levels | ~15 fold | about 11 fold | around 4 fold |  |  |  |  |  |  | 
IgG1-AXL-107-vcMMAE: anti-human AXL IgG1-kappa antibody conjugated, on an average of 4 cysteinyl, to MMAE via cleavable mc-val-cit-PABC linker | about 1.4 fold | increased | about 3.5 fold | increased | about 3 fold | ~7 fold | about 7.5 fold | about 1.6 fold | induced tumor regression | some tumor growth inhibition | does not bind | strong anti-tumor activity | strong anti-tumor activity |  | 
CC[C@H](C)[C@@H]([C@@H](CC(=O)N1CCC[C@H]1[C@H](OC)[C@@H](C)C(=O)N[C@H](C)[C@@H](O)c1ccccc1)OC)N(C)C(=O)[C@@H](NC(=O)[C@@H](NC)C(C)C)C(C)C [MMAE, monomethyl auristatin E] (H-[NMeV]V[Dil][Dolaproine]-X1) | comparable | increased | comparable | increased | comparable levels | about 10 fold | similar | around 4 fold |  |  |  |  |  | about 10 fold | ~26 fold
anti-PD1: anti-PD1 antibody pembrolizumab (KEYTRUDA, MSD), obtained from SelleckChem |  |  |  |  |  |  |  |  | no enhanced tumor growth inhibition | no enhanced tumor growth inhibition |  |  |  |  | 
